# Experiments:
# Experiment in all cases: SILAC competitive chemical proteomic assay (TH211 probe, LC-MS/MS)
# [1] = system: Heat shock protein HSP 90-beta; assay type: cell-based, human; settings: TH207 inhibitor; HEK293T soluble fraction; tyrosine 61
# Procedure: (§1) The light and heavy proteomes (2.3 mg/mL, 432 μL) prepared from HEK293T cells that were pretreated in situ with vehicle (DMSO) or the inhibitor (2 μM), respectively, at 37° C. for 1 hr followed by probe TH211 treatment (50 μM) for 2 h, were directly were subjected to click reaction with the desthiobiotin-PEG3-azide (10 mM in DMSO, 10 μL, final concentration 200 μM) in the presence of TCEP (50 mM, 10 μL), TBTA (1.7 mM, 33 μL) and CuSO4 (50 mM, 10 μL) at room temperature for 1 hr. The light and the heavy samples were mixed in the chloroform-methanol extraction step. The subsequent steps including reduction with dithiothreitol, alkylation with iodoacetamide, digestion with Trypsin/Lys-C, enrichment with avidin beads were conducted as previously described^26.
# Isoleucine tRNA ligase = molecular target: T1, Isoleucine tRNA ligase (Homo sapiens, UniProt Q9NSE4); assay type: cell-based; settings: TH207 inhibitor; HEK293T soluble fraction; Q9NSE4.2 tyrosine 260
# T1 construct: endogenous in cells; host or cells: HEK293T
# T1 sequence (Q9NSE4 49-1012): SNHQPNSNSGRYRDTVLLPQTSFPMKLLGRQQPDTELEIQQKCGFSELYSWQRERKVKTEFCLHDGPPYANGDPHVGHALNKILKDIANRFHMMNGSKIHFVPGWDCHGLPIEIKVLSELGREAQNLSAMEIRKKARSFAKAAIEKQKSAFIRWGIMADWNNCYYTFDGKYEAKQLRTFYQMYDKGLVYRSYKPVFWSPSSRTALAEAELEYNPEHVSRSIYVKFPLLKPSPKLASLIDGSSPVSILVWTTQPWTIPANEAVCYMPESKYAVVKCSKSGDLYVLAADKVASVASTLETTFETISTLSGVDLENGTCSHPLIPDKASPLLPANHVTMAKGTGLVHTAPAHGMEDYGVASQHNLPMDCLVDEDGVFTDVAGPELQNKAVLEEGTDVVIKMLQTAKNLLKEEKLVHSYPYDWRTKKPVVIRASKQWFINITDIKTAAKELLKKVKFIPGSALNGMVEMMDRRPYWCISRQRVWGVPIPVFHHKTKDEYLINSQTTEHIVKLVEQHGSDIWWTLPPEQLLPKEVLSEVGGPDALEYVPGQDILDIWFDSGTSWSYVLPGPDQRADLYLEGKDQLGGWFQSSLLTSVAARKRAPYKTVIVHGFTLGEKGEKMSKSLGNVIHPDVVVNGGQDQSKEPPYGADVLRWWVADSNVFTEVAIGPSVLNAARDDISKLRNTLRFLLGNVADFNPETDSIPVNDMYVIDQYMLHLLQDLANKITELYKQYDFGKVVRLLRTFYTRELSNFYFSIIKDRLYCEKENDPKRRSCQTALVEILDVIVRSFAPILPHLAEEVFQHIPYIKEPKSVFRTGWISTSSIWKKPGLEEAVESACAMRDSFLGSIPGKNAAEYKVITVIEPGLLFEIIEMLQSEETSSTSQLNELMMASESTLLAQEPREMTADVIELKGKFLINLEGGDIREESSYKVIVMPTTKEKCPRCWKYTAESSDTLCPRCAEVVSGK
# Procedure: as §1
# PFKL = molecular target: T2, PFKL (Homo sapiens, UniProt P17858); assay type: cell-based
# T2 construct: endogenous in cells; host or cells: HEK293T
# T2 sequence (P17858 1-780): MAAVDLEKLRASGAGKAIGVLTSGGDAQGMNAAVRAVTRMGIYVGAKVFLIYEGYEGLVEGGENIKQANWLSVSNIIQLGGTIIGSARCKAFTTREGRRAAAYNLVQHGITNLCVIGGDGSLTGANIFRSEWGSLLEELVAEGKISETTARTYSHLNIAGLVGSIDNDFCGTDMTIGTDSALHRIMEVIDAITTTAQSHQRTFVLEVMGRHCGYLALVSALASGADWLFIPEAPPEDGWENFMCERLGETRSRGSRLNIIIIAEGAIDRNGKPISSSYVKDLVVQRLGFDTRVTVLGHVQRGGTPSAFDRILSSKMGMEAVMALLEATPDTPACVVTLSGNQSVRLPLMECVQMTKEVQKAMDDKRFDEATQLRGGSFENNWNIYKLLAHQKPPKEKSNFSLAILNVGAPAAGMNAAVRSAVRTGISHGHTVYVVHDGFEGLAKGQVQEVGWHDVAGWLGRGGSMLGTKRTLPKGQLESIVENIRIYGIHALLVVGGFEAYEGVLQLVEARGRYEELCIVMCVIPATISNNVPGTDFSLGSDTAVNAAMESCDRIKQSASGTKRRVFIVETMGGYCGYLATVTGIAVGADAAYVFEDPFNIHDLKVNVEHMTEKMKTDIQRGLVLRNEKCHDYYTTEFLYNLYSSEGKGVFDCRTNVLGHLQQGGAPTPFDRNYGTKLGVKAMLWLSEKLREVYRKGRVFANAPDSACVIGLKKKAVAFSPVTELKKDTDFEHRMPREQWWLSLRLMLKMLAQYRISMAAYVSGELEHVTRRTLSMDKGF
# Procedure: as §1
# Some SuTEx analogues with RF001 fragment were synthesized and characterized. The in situ competition assay was then conducted, during which HEK293T cells were treated with 1 μM of a SuTEx analogue for 1 h, followed by treatment with 25 μM of TH211 as the probe for 2 h. […] The analogues with electron-donating groups like methyl or methoxy on the para position of phenyl performed better than those with electron-withdrawing groups. Under the same condition, the IC5o of TH220 was determined as 305.6 nM. The identity of the bound protein was studied by LC-MS/MS. The assay results indicated PFKL as the potential target and that binding sites include Y674 and K677, since the ratio trends are the same as that found in the in situ competition assay. To study selective targeting of PFKL by the series of SuTEx analogues, Fag-PFKL, Flag-PFKM, and Flag-PFKP were overexpressed in HEK293T cells and in vitro competition assays were performed for comparison. […] To optimize these SuTEx ligands, another series of derivatives were synthesized and evaluated with TH233 as a negative control and TH220 as positive control, respectively. […] Compared to TH220, the probinding activity of XJ-2-103 with trifluoromethyl group at para position of the phenyl ring is not as good, which is consistent with the results shown in FIG. 18A.
smiles,measurement,setting,value
"Cc1ccc(S(=O)(=O)n2cc(CCN3CCC(=C(c4ccc(F)cc4)c4ccc(F)cc4)CC3)nn2)cc1 [TH207, 4-(Bis(4-fluorophenyl)methylene)-1-(2-(1-tosyl-1H-1,2,3-triazol-4-yl)ethyl)piperidine]","Normalized SILAC ratio (SR), Heat shock protein HSP 90-beta Y61",[1],1.5
same,"Normalized SILAC ratio (SR), Isoleucine tRNA ligase Y260",Isoleucine tRNA ligase,1.8
same,SILAC ratios (SR) from competitive chemical proteomic assay,"PFKL; HEK293T in situ, vehicle (light) vs inhibitor 2 μM (heavy) 1 hr, then TH211 50 μM 2 h, protein/site not given",3.41
same,"Normalized SILAC ratio (SR), PFKL K677","PFKL; TH207 inhibitor, HEK293T soluble fraction, P17858.6 lysine 677",2.7
same,"Normalized SILAC ratio (SR), PFKL Y674","PFKL; TH207 inhibitor, HEK293T soluble fraction, P17858.6 tyrosine 674",2.7

# — patent US20240400542A1 (University of Virginia Patent Foundation, priority 2021, published 2024)
